Measurements reported in US20220054438A1, “KCHIP2 MODULATOR COMPOUNDS AND THEIR USE FOR THE TREATMENT OF CARDIOVASCULAR DISEASES” (CONSEJO SUPERIOR DE INVESTIGACIONES CIENTÍFICAS (CSIC), priority 2018, published 2022).
Entries after “also recorded” stand apart in the source; their conditions may differ.

Columns and labels:
[1] = molecular target: T1, KV4.3+KChIP2+DPP6 channels (Homo sapiens, UniProt Q9NS61); assay: Whole-cell patch-clamp of KV4.3+KChIP2+DPP6 currents in transiently transfected CHO cells; type: cell-based
T1 construct: expressed in transfected cells; host or cells: CHO cells (transient transfection)
Source text: (§1) Example 2. Tests of the effects of the compounds on the KV4.3/KChIP2 and KV4.3/KChIP2/DPP6 currents generated after the activation of KV4.3/KChIP2 and KV4.3/KChIP2/DPP6 channels expressed in CHO cells.
(§2) The compounds synthesized according to this invention have been evaluated in vitro in voltage clamp tests in CHO cells transiently transfected with cDNA encoding KV4.3 alone or KV4.3 in the presence of KChIP2 (KV4.3+KChIP2) and DPP6 (KV4.3+KChIP2+DPP6) using the whole-cell configuration of the patch-clamp technique. Some of the compounds activate the current generated by the activation of KV4.3+KChIP2 channels.

[2] = tested on: K+ current in ventricular cardiomyocytes; assay: Perforated patch-clamp of K+ current in mouse ventricular cardiomyocytes; type: cell-based, C57BL/6J mice; conditions: 3 μM perfused for 3-4 minutes, +60 mV
Source text: Example 3. Effects of the Compounds on the K^+ Current Recorded in Mouse Ventricular Cardiomyocytes
The cardiomyocytes were obtained after enzyme dissociation with collagenase.

KV4.3+KChIP2 channels = molecular target: T2, KV4.3+KChIP2 channels (Homo sapiens, UniProt Q9NS61); assay: Whole-cell patch-clamp of KV4.3+KChIP2 currents in transiently transfected CHO cells; type: cell-based
T2 construct: expressed in transfected cells; host or cells: CHO cells (transient transfection)
T2 sequence (Q9NS61 1-270): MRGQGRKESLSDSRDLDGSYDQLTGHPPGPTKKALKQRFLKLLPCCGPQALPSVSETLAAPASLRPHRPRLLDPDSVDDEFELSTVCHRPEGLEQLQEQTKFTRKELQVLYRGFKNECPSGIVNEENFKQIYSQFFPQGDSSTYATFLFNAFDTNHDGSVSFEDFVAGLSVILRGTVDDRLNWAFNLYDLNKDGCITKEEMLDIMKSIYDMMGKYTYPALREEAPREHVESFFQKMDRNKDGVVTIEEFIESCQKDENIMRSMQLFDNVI
T2 sequence (Q9UK17 1-655 partner): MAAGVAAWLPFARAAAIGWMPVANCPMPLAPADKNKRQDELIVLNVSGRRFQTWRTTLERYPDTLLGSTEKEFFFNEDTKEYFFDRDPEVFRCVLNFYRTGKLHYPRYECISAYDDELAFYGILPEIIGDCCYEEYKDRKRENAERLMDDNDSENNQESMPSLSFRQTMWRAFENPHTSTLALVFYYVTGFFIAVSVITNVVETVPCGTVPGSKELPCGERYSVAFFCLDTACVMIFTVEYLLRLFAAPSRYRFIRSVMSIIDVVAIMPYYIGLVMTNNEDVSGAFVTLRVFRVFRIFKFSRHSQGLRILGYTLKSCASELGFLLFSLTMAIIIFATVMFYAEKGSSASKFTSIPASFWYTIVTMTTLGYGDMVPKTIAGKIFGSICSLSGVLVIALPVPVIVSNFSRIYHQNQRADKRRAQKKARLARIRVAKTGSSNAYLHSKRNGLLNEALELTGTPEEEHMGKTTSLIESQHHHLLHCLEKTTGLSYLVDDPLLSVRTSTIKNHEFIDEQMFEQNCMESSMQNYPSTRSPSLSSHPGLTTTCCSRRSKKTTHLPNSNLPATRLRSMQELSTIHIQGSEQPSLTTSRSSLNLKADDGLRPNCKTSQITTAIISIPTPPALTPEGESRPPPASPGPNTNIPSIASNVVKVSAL
Source text: as §1, §2

T1 sequence (P42658 whole entry partner, one chain of several): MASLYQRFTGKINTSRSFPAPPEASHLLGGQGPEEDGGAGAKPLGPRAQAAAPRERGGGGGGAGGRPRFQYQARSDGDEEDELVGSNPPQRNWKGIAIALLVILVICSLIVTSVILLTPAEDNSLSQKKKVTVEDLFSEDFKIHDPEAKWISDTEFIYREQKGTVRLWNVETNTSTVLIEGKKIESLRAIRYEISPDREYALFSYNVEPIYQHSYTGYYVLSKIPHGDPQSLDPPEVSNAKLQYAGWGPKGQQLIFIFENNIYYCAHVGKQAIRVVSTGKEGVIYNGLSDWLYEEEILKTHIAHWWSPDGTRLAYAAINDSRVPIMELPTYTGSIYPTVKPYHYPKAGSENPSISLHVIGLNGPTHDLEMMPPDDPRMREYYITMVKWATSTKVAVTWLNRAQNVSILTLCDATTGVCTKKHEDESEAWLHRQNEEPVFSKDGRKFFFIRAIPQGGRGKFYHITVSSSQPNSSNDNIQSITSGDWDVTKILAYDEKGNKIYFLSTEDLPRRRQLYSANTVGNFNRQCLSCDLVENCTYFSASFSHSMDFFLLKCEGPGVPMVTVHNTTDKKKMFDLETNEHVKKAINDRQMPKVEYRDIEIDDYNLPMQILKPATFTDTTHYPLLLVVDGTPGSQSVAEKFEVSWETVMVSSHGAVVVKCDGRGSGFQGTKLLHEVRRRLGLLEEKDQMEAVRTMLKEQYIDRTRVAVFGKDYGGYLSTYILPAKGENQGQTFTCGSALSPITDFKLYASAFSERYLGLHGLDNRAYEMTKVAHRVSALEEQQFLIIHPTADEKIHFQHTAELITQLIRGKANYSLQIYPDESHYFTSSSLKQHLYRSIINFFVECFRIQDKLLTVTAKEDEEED

- charge, concentration dependence ([1]; FIG. 2B, +60 mV, compared with KV4.3/KChIP2): increase in the charge more pronounced
- maximum peak of the current (KV4.3+KChIP2 channels; 3 μM, FIG. 1A, CHO cells): lowers the maximum peak
Structure (SMILES): O=C(Cc1cccc(Oc2ccccc2)c1)Nc1cc2ccccc2cc1C(=O)O [Compound 22bis, 3-[2-(3-phenoxyphenyl)acetylamino]-2-naphthoic acid]
- current activating effect ([1]; 3 μM, FIG. 1B, compared with KV4.3+KChIP2): more pronounced in the presence of the DPP6 subunit
- charge-voltage relationship (Q-V) ([1]; 3 μM, FIG. 3): increase in the charge of the KV4.3/KChIP2 and KV4.3/KChIP2/DPP6 current which turned out to be significant at potentials positive than 0 mV; also recorded: greater than in KV4.3/KChIP2 channels
- decay (inactivation) time constant of the K+ current [2]: without modifying the decay time constant
- maximum peak K+ current [2]: significant increase in the maximum peak current
- charge measured as the area under the current record (KV4.3+KChIP2 channels; 3 μM, CHO cells, depolarizing pulses at +60 mV): increases the charge; also recorded: produced an increase in the charge
- charge-voltage relationship (Q-V) (KV4.3+KChIP2 channels; 3 μM, FIG. 3): increase in the charge of the KV4.3/KChIP2 and KV4.3/KChIP2/DPP6 current which turned out to be significant at potentials positive than 0 mV
- decrease in the peak versus decrease in the charge, concentration dependence (KV4.3+KChIP2 channels; all concentrations tested except 0.01 μM, FIG. 2, +60 mV): decrease in the peak that was significantly greater than that of the charge
